Target: T1, Human CYP2C8 (Homo sapiens, UniProt P10632)
T1 construct: purchased Cypex; host or cells: E. coli
T1 sequence (P10632 1-490): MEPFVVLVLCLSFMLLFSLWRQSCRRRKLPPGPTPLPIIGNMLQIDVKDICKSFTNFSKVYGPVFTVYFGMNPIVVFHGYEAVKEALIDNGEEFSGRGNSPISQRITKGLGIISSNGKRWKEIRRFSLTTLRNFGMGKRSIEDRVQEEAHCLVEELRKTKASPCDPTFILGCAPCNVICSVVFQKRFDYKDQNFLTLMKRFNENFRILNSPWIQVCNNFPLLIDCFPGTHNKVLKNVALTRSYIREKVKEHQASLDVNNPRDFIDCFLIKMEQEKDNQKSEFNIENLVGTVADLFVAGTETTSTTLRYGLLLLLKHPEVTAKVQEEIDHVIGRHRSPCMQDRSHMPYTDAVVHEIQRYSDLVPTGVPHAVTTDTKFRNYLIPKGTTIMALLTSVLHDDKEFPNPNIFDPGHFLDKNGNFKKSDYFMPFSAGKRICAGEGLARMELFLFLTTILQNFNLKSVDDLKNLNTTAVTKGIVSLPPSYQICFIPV
Experiment: Inhibitory activity of drug-metabolizing enzyme (human CYP2C8 inhibition effect)
Type: in vitro ADME
Conditions: E. coli-expressed CYP2C8, Luciferin-ME substrate, 37° C. 30 min, from inhibition at 1 and 10 μmol/L
Procedure: The reaction was carried out in a 384-well plate. As the positive control substance (CYP2C8: quercetin), a solution, which had been adjusted with DMSO to have 300 times higher concentration than the final concentration (CYP2C8: 22.5 and 225 μmol/L) and been 75-fold diluted with purified water containing 2.7% acetonitrile, was prepared (CYP2C8: 0.3 and 3 μmol/L). […] Thereafter, 16 μL of luciferase solution was added to stop the reaction and to allow luciferin to emit light, and the luminescence intensity of the reaction solution was measured. The inhibition rate is a reduction rate (inhibition rate) of the luminescence intensity when compared with the control in which the reaction was carried out by the addition of DMSO in place of the test compound solution. The inhibition rate was calculated from the following mathematical formula. Inhibition rate (%)=100−{(luminescence intensity of test compound−background luminescence intensity)/(luminescence intensity of control−background luminescence intensity)×100} [Math. […]
The IC50 value of the compound of the present invention was measured using the measurement method described above.

| IC50 [µM] | Structure (SMILES) |
| --- | --- |
| > 10 | COc1cc2nccc(Oc3ccc(NC(=O)c4c5c(cn(-c6ccccc6)c4=O)C(=O)CCC5)nc3)c2cc1OC [Example 42, N-{5-[(6,7-dimethoxy-4-quinolinyl)oxy]-2-pyridinyl}-3,8-dioxo-2-phenyl-2,3,5,6,7,8-hexahydro-4-isoquinolinecarboxamide] |
| > 10 | COc1cc2nccc(Oc3ccc(NC(=O)c4cc(C(C)=O)cn(-c5ccccc5)c4=O)nc3)c2cc1OC [Example 21, 5-acetyl-N-{5-[(6,7-dimethoxy-4-quinolinyl)oxy]-2-pyridinyl}-2-oxo-1-phenyl-1,2-dihydro-3-pyridinecarboxamide] |

From patent US10208034B2, “Quinoline derivative” (ONO PHARMACEUTICAL CO., LTD., priority 2014, dated 2019)
